# Results: ChEMBL document CHEMBL3259796, “Synthesis and in-vivo hypolipidemic activity of some novel substituted phenyl isoxazol phenoxy acetic acid derivatives” (Bioorg Med Chem Lett, 2014)
# How the values were obtained:
# [1] = Retardation factor of the compound using chloroform/methanol at 4:1 ratio; assay type: physicochemical
# [2] = Retardation factor of the compound using ethyl acetate/n-hexane at 1:1 ratio; assay type: physicochemical
# Rattus norvegicus [3] = experiment: Hypolipidemic activity in triton WR-1339 Wistar rat assessed as very low-density lipoprotein at 250 mg/kg, po for 7 days (reference value: 38 +/- 1.80 mg/dl); assay type: functional
# Rattus norvegicus [4] = experiment: Hypolipidemic activity in triton WR-1339 Wistar rat assessed as total cholesterol at 250 mg/kg, po for 7 days (reference value: 209 +/- 1.45 mg/dl); assay type: functional
# Rattus norvegicus [5] = experiment: Hypolipidemic activity in triton WR-1339 Wistar rat assessed as atherogenic index at 250 mg/kg, po for 7 days (reference value: 10.18 no unit); assay type: functional
# Rattus norvegicus [6] = experiment: Hypolipidemic activity in triton WR-1339 Wistar rat assessed as high-density lipoprotein at 250 mg/kg, po for 7 days (reference value: 17 +/- 1.70 mg/dl); assay type: functional
# Rattus norvegicus [7] = experiment: Hypolipidemic activity in triton WR-1339 Wistar rat assessed as low-density lipoprotein at 250 mg/kg, po for 7 days (reference value: 154 +/- 1.82 mg/dl); assay type: functional
# Rattus norvegicus [8] = experiment: Hypolipidemic activity in triton WR-1339 Wistar rat assessed as triglyceride at 250 mg/kg, po for 7 days (reference value: 190 +/- 1.98 mg/dl); assay type: functional
# Rattus norvegicus [9] = experiment: Hypolipidemic activity in triton WR-1339 Wistar rat assessed as increase in protection at 250 mg/kg, po for 7 days; assay type: functional
Rf [1],Rf [2],SMILES,Activity (Rattus norvegicus [3]) [mg/dL],Activity (Rattus norvegicus [4]) [mg/dL],AI (Rattus norvegicus [5]),Activity (Rattus norvegicus [6]) [mg/dL],Activity (Rattus norvegicus [7]) [mg/dL],Activity (Rattus norvegicus [8]) [mg/dL],Activity (Rattus norvegicus [9]) [%]
0.61,,O=C(/C=C/c1ccco1)c1ccc(O)cc1,,,,,,,
0.49,,O=C(/C=C/c1ccccc1O)c1ccccc1,,,,,,,
0.48,,COc1cc(/C=C/C(=O)c2ccc(O)cc2)cc(OC)c1OC,,,,,,,
0.6,,O=C(/C=C/c1ccccc1Cl)c1ccc(O)cc1,,,,,,,
0.62,,O=C(/C=C/c1ccc(O)cc1)c1ccc(F)cc1,,,,,,,
0.51,,COc1ccccc1/C=C/C(=O)c1ccc(O)cc1,,,,,,,
,0.57,COc1cc(-c2cc(-c3ccccc3)on2)ccc1O,,,,,,,
,0.6,Oc1ccccc1-c1cc(-c2ccccc2)on1,,,,,,,
,0.5,Oc1ccc(-c2cc(-c3ccc(F)cc3)on2)cc1,,,,,,,
,0.59,COc1ccccc1-c1cc(-c2ccc(O)cc2)on1,,,,,,,
,0.63,COc1cc(-c2cc(-c3ccc(O)cc3)on2)cc(OC)c1OC,,,,,,,
,0.6,Oc1ccc(-c2cc(-c3ccccc3Cl)no2)cc1,,,,,,,
,0.58,Oc1ccc(-c2cc(-c3c(Cl)cccc3Cl)no2)cc1,,,,,,,
,0.61,Oc1ccc(-c2cc(-c3ccco3)no2)cc1,,,,,,,
,0.56,Oc1ccc(-c2cc(-c3ccccc3)no2)cc1,,,,,,,
,0.6,Oc1ccc(-c2cc(-c3ccc(Cl)cc3)no2)cc1,,,,,,,

Rf [1],Rf [2],SMILES,Activity (Rattus norvegicus [3]) [mg/dL],Activity (Rattus norvegicus [4]) [mg/dL],AI (Rattus norvegicus [5]),Activity (Rattus norvegicus [6]) [mg/dL],Activity (Rattus norvegicus [7]) [mg/dL],Activity (Rattus norvegicus [8]) [mg/dL],Activity (Rattus norvegicus [9]) [%]
,0.56,COc1cc(-c2cc(-c3ccccc3)on2)ccc1OCC(=O)O,23,94,1.5,46,25,115,85.27
,0.52,O=C(O)COc1ccccc1-c1cc(-c2ccccc2)on1,25.2,91,1.91,42.5,23.3,123.5,81.24
,0.52,O=C(O)COc1ccc(-c2cc(-c3ccc(F)cc3)on2)cc1,21.1,81,1.43,43.5,16.4,105.5,85.95
,0.45,COc1ccccc1-c1cc(-c2ccc(OCC(=O)O)cc2)on1,23.5,77.5,1.64,44.5,10.5,117.5,83.89
,0.51,COc1cc(-c2cc(-c3ccc(OCC(=O)O)cc3)on2)cc(OC)c1OC,25.5,82.5,2.09,40.5,29,125,79.47
,0.48,O=C(O)COc1ccc(-c2cc(-c3ccccc3Cl)no2)cc1,22,148.5,1.75,40,86.5,110,82.81
,0.5,O=C(O)COc1ccc(-c2cc(-c3c(Cl)cccc3Cl)no2)cc1,22.7,90,1.55,44.5,22.8,113.5,84.77
,0.46,O=C(O)COc1ccc(-c2cc(-c3ccco3)no2)cc1,22.6,87,1.69,42,22.4,113,83.4
,0.56,O=C(O)COc1ccc(-c2cc(-c3ccccc3)no2)cc1,26.4,88,2.26,40.5,11.1,132,77.8
,0.53,O=C(O)COc1ccc(-c2cc(-c3ccc(Cl)cc3)no2)cc1,26.3,83.5,2.21,41,16.2,131.5,78.29
0.54,,COc1cc(/C=C/C(=O)c2ccccc2)ccc1O,,,,,,,
0.56,,O=C(/C=C/c1ccc(Cl)cc1)c1ccc(O)cc1,,,,,,,
0.52,,O=C(/C=C/c1c(Cl)cccc1Cl)c1ccc(O)cc1,,,,,,,
0.53,,O=C(/C=C/c1ccccc1)c1ccc(O)cc1 [4'-HYDROXYCHALCONE],,,,,,,
,,CC(C)OC(=O)C(C)(C)Oc1ccc(C(=O)c2ccc(Cl)cc2)cc1 [FENOFIBRATE],23.8,116.5,,44.5,48.2,119,83.6
